Data on 17 molecules can be found in patent publication US11976083B2, “Inhibitors of peptidylarginine deiminases” (Gilead Sciences, Inc., priority 2020, dated 2024).

The experiment deals with T1, human PAD4 (Homo sapiens, UniProt Q9UM07).
T1 construct: human PAD4 (NM_012387), A2-P663, was PCR amplified; His-SUMO (N, cleaved yes); made in house; host or cells: E. coli BL21(DE3)
Put plainly: In vitro PAD4 BAEE biochemical assay. The note with it: BAEE substrate 3 mM, 5 nM PAD4, 2 mM calcium chloride; geometric mean of multiple experiments. A digest of the protocol: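 Recombinant PAD4 (5 nM final) with 2 mM CaCl2 was preincubated with compound for 30 min at 25 °C in MOPS pH 7.6 buffer with DTT, then reacted with 3 mM BAEE for 2 h at 25 °C. Released ammonia was detected fluorimetrically with o-phthalaldehyde/DTT; IC50 from four-parameter fit, geometric mean of experiments.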

T1 sequence (Q9UM07 2-663): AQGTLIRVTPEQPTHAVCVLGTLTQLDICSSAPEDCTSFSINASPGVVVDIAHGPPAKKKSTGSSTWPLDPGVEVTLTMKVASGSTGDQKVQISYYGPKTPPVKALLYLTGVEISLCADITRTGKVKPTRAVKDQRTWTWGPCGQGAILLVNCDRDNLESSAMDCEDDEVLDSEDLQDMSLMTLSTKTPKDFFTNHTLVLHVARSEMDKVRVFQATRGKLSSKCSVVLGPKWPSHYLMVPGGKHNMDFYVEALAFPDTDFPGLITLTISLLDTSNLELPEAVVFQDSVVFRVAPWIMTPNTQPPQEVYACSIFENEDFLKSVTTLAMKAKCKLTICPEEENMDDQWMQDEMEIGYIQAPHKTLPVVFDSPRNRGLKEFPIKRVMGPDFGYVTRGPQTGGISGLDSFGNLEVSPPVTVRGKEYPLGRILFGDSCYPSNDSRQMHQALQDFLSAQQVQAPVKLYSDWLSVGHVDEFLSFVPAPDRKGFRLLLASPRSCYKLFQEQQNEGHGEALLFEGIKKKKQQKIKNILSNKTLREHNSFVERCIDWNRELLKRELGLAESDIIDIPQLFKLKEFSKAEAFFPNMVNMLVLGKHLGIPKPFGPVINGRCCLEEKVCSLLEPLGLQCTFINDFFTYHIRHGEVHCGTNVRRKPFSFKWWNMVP

Broadly, the IC50 is the point on the concentration scale where inhibition reaches its midpoint. Take `C[C@H]1NC(=O)[C@@H]2C[C@H]2CCCC(F)(F)Cn2c(-c3nc4cc(C(=O)N5C[C@H](N)[C@@H]6CC[C@H]5C6)cc(F)c4n3[C@H]3C[C@H]3C(F)F)cc3ccc1nc32` [Example 755, (2~{R},5~{R},7~{R})-14-[5-[(1~{S},4~{R},5~{R})-4-amino-2-azabicyclo[3.2.1]octane-2-carbonyl]-1-[(1~{S},2~{R})-2-(difluoromethyl)cyclopropyl]-7-fluoro-benzimidazol-2-yl]-11,11-difluoro-2-methyl-3,13,19-triazatetracyclo[11.5.2.0^ {5,7}.0^{16,20}]icosa-1(19),14,16(20),17-tetraen-4-one]: the IC50 stood at 29 nM.
As for `COc1cc(C(=O)N2CCC[C@@H](N)C2)cc2nc(-c3cc4ccc5nc4n3CCCCC[C@@H](OC)C(C)(C)C(=O)N[C@@H]5C)n(C)c12` [Example 153, (7~{R},11~{R})-17-[5-[(3~{R})-3-aminopiperidine-1-carbonyl]-7-methoxy-1-methyl-benzimidazol-2-yl]-7-methoxy-8,8,11-trimethyl-1,10,19-triazatricyclo[10.5.2.0^{15,18}]nonadeca-12(19),13,15(18),16-tetraen-9-one], the IC50 amounted to 116 nM.
In the case of `COc1cc(C(=O)N2CCC[C@@H](N)C2)cc2nc(-c3cc4ccc5nc4n3CCCOC[C@H]3C[C@H]3C(=O)N[C@@H]5C)n(C)c12` [Example 308, (2~{R},5~{R},7~{S})-14-[5-[(3~{R})-3-aminopiperidine-1-carbonyl]-7-methoxy-1-methyl-benzimidazol-2-yl]-2-methyl-9-oxa-3,13,19-triazatetracyclo[11.5.2.0^{5,7}.0^{16,20}] icosa-1(19),14,16(20),17-tetraen-4-one] it was 72 nM; in that of `COc1cc(C(=O)N2[C@@H]3CC[C@@H](N)[C@H]2CC3)cc2nc(-c3cc4ccc5nc4n3CC(F)(F)CCC[C@@H]3C[C@H]3C(=O)N[C@@H]5C)n(C)c12` [Example 752, (2~{R},5~{R},7~{R})-14-[5-[(1~{R},2~{R},5~{R})-2-amino-8-azabicyclo[3.2.1]octane-8-carbonyl]-7-methoxy-1-methyl-benzimidazol-2-yl]-11,11-difluoro-2-methyl-3,13,19-triazatetracyclo[11.5.2.0^ {5,7}.0^{16,20}]icosa-1(19),14,16(20),17-tetraen-4-one], 30 nM; in that of `C[C@H]1NC(=O)[C@@H]2C[C@@H]2CCCCCn2c(-c3nc4cc(C(=O)N[C@H]5CNCC[C@@H]5F)c(F)cc4n3C3CC3)cc3ccc1nc32` [Example 520, 1-cyclopropyl-6-fluoro-~ {N}-[(3~{S},4~{S})-4-fluoro-3-piperidyl]-2-[(2~{R},5~{R},7~{S})-2-methyl-4-oxo-3,13,19-triazatetracyclo[11.5.2.0^ {5,7}.0^{16,20}]icosa-1(19),14,16(20),17-tetraen-14-yl]benzimidazole-5-carboxamide], 35 nM.
`COc1cc(C(=O)N2[C@H]3CC[C@@H]2[C@H](N)[C@H](OC)C3)cc2nc(-c3cc4ccc5nc4n3CCCCC[C@@H]3C[C@H]3C(=O)N[C@@H]5C)n(C)c12` [Example 584, (2~{R},5~{R},7~{R})-14-[5-[(1~{R},2~{S},3~ {R},5~{S})-2-amino-3-methoxy-8-azabicyclo[3.2.1]octane-8-carbonyl]-7-methoxy-1-methyl-benzimidazol-2-yl]-2-methyl-3,13,19-triazatetracyclo [11.5.2.0^{5,7}.0^{16,20}] icosa-1(19),14,16(20), 17-tetraen-4-one]: the IC50 came to 51 nM.
Turning to `COc1cc(C(=O)N2CC[C@@H](OC)[C@@H](N)C2)cc2nc(-c3cc4ccc5nc4n3CCCCC[C@H]3C[C@H]3C(=O)N[C@@H]5C)n(C)c12` [Example 525, (2~{R},5~{R},7~ {S})-14-[5-[(3~{S},4~{R})-3-amino-4-methoxy-piperidine-1-carbonyl]-7-methoxy-1-methyl-benzimidazol-2-yl]-2-methyl-3,13,19-triazatetracyclo [11.5.2.0^{5,7}.0^{16,20}] icosa-1(19),14,16(20), 17-tetraen-4-one], the IC50 is 78 nM.
`COc1cc(C(=O)N[C@H]2CNCC[C@@H]2F)cc2nc(-c3cc4ccc5nc4n3CCCCCOC(C)(C)C(=O)N[C@@H]5C)n(C)c12` [Example 19, ~{N}-[(3~{S},4~{S})-4-fluoro-3-piperidyl]-7-methoxy-1-methyl-2-[(11~{R})-8,8,11-trimethyl-9-oxo-7-oxa-1,10,19-triazatricyclo[10.5.2.0^{15,18}]nonadeca-12(19),13,15(18),16-tetraen-17-yl]benzimidazole-5-carboxamide]: the concentration for half-maximal inhibition (IC50) was 76 nM.
Take `C[C@H]1NC(=O)c2ccc(Cl)nc2CCCCCn2c(-c3nc4cc(C(=O)N5[C@H]6CC[C@@H]5[C@H](N)C6)cc(F)c4n3C3CC3)cc3ccc1nc32` [Example 808, (2~{R})-17-[5-[(1~{R},2~{R},4~ {S})-2-amino-7-azabicyclo [2.2.1]heptane-7-carbonyl]-1-cyclopropyl-7-fluoro-benzimidazol-2-yl]-8-chloro-2-methyl-3,9,16,22-tetrazatetracyclo[14.5.2.0^ {5,10}.0^{19,23}]tricosa-1(21),5(10),6,8,17,19,22-heptaen-4-one]: the IC50 was determined as 15 nM.
In the case of `COc1cc(C(=O)N2CC[C@@H](OC)[C@@H](N)C2)cc2nc(-c3cc4ccc5nc4n3CCCc3cccc(c3)CC(=O)N[C@@H]5C)n(C)c12` [Example 866, (13˜{R})-19-[5-[(3˜{S},4˜{R})-3-amino-4-methoxy-piperidine-1-carbonyl]-7-methoxy-1-methyl-benzimidazol-2-yl]-13-methyl-1,12,21-triazatetracyclo[12.5.2.1^{5,9}.0^{17,20}]docosa-5,7,9(22),14(21),15,17(20),18-heptaen-11-one], the IC50 amounted to 79 nM.
With `COc1cc(C(=O)N2CC[C@@H](OC)[C@@H](N)C2)cc2nc(-c3cc4ccc5nc4n3CCCCCc3cccnc3C(=O)N[C@@H]5C)n(C)c12` [Example 503, (2~{R})-17-[5-[(3~ {S},4~{R})-3-amino-4-methoxy-piperidine-1-carbonyl]-7-methoxy-1-methyl-benzimidazol-2-yl]-2-methyl-3,6,16,22-tetrazatetracyclo [14.5.2.0^{5,10).0^{19,23}] tricosa-1(22),5(10),6,8,17,19(23),20-heptaen-4-one], the IC50 is 110 nM.
As for `COc1cc(C(=O)N2C[C@H](N)[C@@H]3CC[C@H]2C3)cc2nc(-c3cc4ccc5nc4n3CCCCC[C@H]3[C@H](C(=O)N[C@@H]5C)C3(F)F)c(C)n12` [Example 929, (2~{R},5~{R},7~{S})-14-[7-[(1~{S},4~{R},5~{R})-4-amino-2-azabicyclo[3.2.1]octane-2-carbonyl]-5-methoxy-3-methyl-imidazo[1,2-a]pyridin-2-yl]-6,6-difluoro-2-methyl-3,13,19-triazatetracyclo[11.5.2.0^ {5,7}.0^{16,20}]icosa-1(19), 14,16(20),17-tetraen-4-one], the 50% inhibitory concentration (IC50) stood at 18 nM.
The same measure for `COc1cc(C(=O)N[C@H]2CNC[C@@H]2F)cc2nc(-c3cc4ccc5nc4n3CCCCCCC(C)(C)C(=O)N[C@@H]5C)n(C)c12` [Example 197, ~{N}-[(3~{S},4~{S})-4-fluoropyrrolidin-3-yl]-7-methoxy-1-methyl-2-[(11~{R})-8,8,11-trimethyl-9-oxo-1,10,19-triazatricyclo[10.5.2.0^{15,18}]nonadeca-12(19),13,15(18),16-tetraen-17-yl]benzimidazole-5-carboxamide]: 6490 nM; for `C[C@H]1NC(=O)[C@]2(C)C[C@H]2CCCCCn2c(-c3nc4cc(C(=O)N[C@H]5CNCC[C@@H]5F)c(F)cc4n3C3CC3)cc3ccc1nc32` [Example 544, 1-cyclopropyl-2-[(2~ {R},5~{R},7~{R})-2,5-dimethyl-4-oxo-3,13,19-triazatetracyclo [11.5.2.0^{5,7}.0^{16,20}]icosa-1(19),14,16(20), 17-tetraen-14-yl]-6-fluoro-~ {N}-[(3~{S},4~{S})-4-fluoro-3-piperidyl]benzimidazole-5-carboxamide]: 40 nM.
For `C[C@H]1NC(=O)[C@@H]2CC2CCCC(F)(F)Cn2c(-c3nc4cc(C(=O)N5C[C@H]6CC[C@@H]5[C@@H]6N)c(F)c(F)c4n3C)cc3ccc1nc32` (some centres unmarked) [Example 566, (2~{R},5~{R},7~{R})-14-[5-[(1~{R},4~{R},7~{R})-7-amino-2-azabicyclo [2.2.1]heptane-2-carbonyl]-6,7-difluoro-1-methyl-benzimidazol-2-yl]-11,11-difluoro-2-methyl-3,13,19-triazatetracyclo[11.5.2.0^ {5,7).0^{16,20}]icosa-1(19),14,16(20),17-tetraen-4-one], the half-maximal inhibitory concentration (IC50) stood at 97 nM.
On to `C[C@H]1NC(=O)[C@@]2(C)C[C@@H]2CCCCCn2c(-c3nc4cc(C(=O)N[C@H]5CNCC[C@@H]5F)c(F)cc4n3C)cc3ccc1nc32` [Example 548, 2-[(2~{R},5~{S},7~ {S})-2,5-dimethyl-4-oxo-3,13,19-triazatetracyclo[11.5.2.0^ {5,7}.0^{16,20}]icosa-1(19),14,16(20),17-tetraen-14-yl]-6-fluoro-~{N}-[(3~{S},4~{S})-4-fluoro-3-piperidyl]-1-methyl-benzimidazole-5-carboxamide], for which the IC50 amounted to 56 nM.
Regarding `C[C@H]1NC(=O)[C@@H]2C[C@H]2CCCCCn2c(-c3nc4cc(C(=O)N[C@H]5CNCC[C@@H]5F)c(F)cc4n3[C@H]3C[C@H]3C(F)F)cc3ccc1nc32` (single isomer, unassigned) [Example 412, 1-[(1~{S},2~{R})-2-(difluoromethyl)cyclopropyl]-6-fluoro-~ {N}-[(3~{S),4~{S})-4-fluoro-3-piperidyl]-2-[(2~{R},5~{R},7~{R})-2-methyl-4-oxo-3,13,19-triazatetracyclo[11.5.2.0^{5,7}.0^{16,20}]icosa-1(19),14,16(20),17-tetraen-14-yl]benzimidazole-5-carboxamide], the IC50 is 42 nM.
